Source: ChEMBL document CHEMBL5212743, “Selectivity Literature for EUbOPEN Chemogenomics Library wave 3” (2023)
Blank lines part the entries; values can stand above or below the compound they belong to.

How the values were obtained:
[1] = target: Serine/threonine-protein kinase RIO3 (Homo sapiens) (UniProt O14730); test: Selectivity interaction (Ambit kinase binding assay panel) EUB0000609a RIOK3; details: at 10 µM
[2] = target: T1, Dual specificity protein kinase CLK1 (Homo sapiens, UniProt P49759); test: Selectivity interaction (Ambit kinase binding assay panel) EUB0000609a CLK1; details: at 10 µM
[3] = target: T1, Dual specificity protein kinase CLK1; test: Selectivity interaction (Enzymatic assay) EUB0000609a CLK1
[4] = target: T2, Mitogen-activated protein kinase 1 (Homo sapiens, UniProt P28482); test: Selectivity interaction (Ambit kinase binding assay panel) EUB0000609a MAPK1; details: at 10 µM
[5] = target: T2, Mitogen-activated protein kinase 1; test: Selectivity interaction (Enzymatic assay) EUB0000609a MAPK1
[6] = target: Mitogen-activated protein kinase 8 (Homo sapiens, UniProt P45983); test: Selectivity interaction (Ambit kinase binding assay panel) EUB0000609a MAPK8; details: at 10 µM
[7] = target: T3, Cyclin-G-associated kinase (Homo sapiens) (UniProt O14976); test: Selectivity interaction (Ambit kinase binding assay panel) EUB0000609a GAK; details: at 10 µM
T3 sequence (whole entry): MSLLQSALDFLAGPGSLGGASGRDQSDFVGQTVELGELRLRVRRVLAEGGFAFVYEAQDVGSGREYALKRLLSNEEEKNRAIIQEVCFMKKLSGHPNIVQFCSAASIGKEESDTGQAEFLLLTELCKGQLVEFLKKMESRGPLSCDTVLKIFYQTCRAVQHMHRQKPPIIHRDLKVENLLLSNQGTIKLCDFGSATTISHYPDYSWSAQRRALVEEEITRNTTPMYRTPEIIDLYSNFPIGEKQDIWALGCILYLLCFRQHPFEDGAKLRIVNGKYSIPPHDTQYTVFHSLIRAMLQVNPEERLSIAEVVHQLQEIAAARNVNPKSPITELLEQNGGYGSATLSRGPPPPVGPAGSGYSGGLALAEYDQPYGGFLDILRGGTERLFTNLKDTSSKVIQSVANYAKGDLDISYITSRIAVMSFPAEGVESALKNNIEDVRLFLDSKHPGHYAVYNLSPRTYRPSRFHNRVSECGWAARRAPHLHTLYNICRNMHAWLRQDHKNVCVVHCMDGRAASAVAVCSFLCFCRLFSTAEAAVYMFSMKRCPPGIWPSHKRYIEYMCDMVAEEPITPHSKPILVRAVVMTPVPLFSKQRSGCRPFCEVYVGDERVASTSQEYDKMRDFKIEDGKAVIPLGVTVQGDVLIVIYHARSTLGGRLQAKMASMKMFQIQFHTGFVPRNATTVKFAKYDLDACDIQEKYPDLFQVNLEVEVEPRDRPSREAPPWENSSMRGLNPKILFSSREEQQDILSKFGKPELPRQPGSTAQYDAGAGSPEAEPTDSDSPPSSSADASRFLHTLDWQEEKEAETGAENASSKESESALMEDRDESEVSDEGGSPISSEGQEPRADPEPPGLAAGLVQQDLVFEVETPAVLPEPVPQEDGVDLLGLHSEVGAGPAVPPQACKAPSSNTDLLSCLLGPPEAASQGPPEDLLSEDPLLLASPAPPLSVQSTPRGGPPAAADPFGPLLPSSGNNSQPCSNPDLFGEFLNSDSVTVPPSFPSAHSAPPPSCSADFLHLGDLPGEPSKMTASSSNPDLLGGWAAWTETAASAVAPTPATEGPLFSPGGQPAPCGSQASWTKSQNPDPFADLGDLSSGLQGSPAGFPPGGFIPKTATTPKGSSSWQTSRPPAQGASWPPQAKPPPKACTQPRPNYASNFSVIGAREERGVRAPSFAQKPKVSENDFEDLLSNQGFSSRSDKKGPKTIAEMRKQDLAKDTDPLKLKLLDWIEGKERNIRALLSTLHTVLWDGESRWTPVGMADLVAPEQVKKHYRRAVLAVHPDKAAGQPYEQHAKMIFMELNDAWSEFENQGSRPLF

[8] = target: Cyclin-G-associated kinase (Homo sapiens, UniProt O14976); test: Selectivity interaction (Enzymatic assay) EUB0000609a GAK
[9] = target: Dual specificity mitogen-activated protein kinase kinase 4 (Homo sapiens) (UniProt P45985); test: Selectivity interaction (Ambit kinase binding assay panel) EUB0000609a MAP2K4; details: at 10 µM
Activated CDC42 kinase 1 = Activated CDC42 kinase 1 (Homo sapiens, UniProt Q07912); test: Selectivity interaction (Enzymatic assay) EUB0000609a TNK2
[10] = target: Non-receptor tyrosine-protein kinase TNK1 (Homo sapiens, UniProt Q13470); test: Selectivity interaction (Enzymatic assay) EUB0000609a TNK1
[11] = target: T4, ALK tyrosine kinase receptor (Homo sapiens, UniProt Q9UM73); test: Selectivity interaction (Ambit kinase binding assay panel) EUB0000609a ALK; details: at 10 µM
[12] = target: T4, ALK tyrosine kinase receptor; test: Selectivity interaction (Enzymatic assay) EUB0000609a ALK
[13] = target: T5, Leukocyte tyrosine kinase receptor (Homo sapiens, UniProt P29376); test: Selectivity interaction (Ambit kinase binding assay panel) EUB0000609a LTK; details: at 10 µM
[14] = target: T5, Leukocyte tyrosine kinase receptor; test: Selectivity interaction (Enzymatic assay) EUB0000609a LTK
Focal adhesion kinase 1 = Focal adhesion kinase 1 (Homo sapiens, UniProt Q05397); test: Selectivity interaction (Enzymatic assay) EUB0000609a PTK2
[15] = target: T6, Protein-tyrosine kinase 2-beta (Homo sapiens, UniProt Q14289); test: Selectivity interaction (Ambit kinase binding assay panel) EUB0000609a PTK2B; details: at 10 µM
[16] = target: T6, Protein-tyrosine kinase 2-beta; test: Selectivity interaction (Enzymatic assay) EUB0000609a PTK2B
[17] = target: T7, Insulin-like growth factor 1 receptor (Homo sapiens, UniProt P08069); test: Selectivity interaction (Ambit kinase binding assay panel) EUB0000609a IGF1R; details: at 10 µM
[18] = target: T7, Insulin-like growth factor 1 receptor; test: Selectivity interaction (Enzymatic assay) EUB0000609a IGF1R
Insulin receptor [19] = target: T8, Insulin receptor (Homo sapiens, UniProt P06213); test: Selectivity interaction (Ambit kinase binding assay panel) EUB0000609a INSR; details: at 10 µM
Insulin receptor [20] = target: T8, Insulin receptor; test: Selectivity interaction (Enzymatic assay) EUB0000609a INSR
[21] = target: T9, Insulin receptor-related protein (Homo sapiens, UniProt P14616); test: Selectivity interaction (Ambit kinase binding assay panel) EUB0000609a INSRR; details: at 10 µM
[22] = target: T9, Insulin receptor-related protein; test: Selectivity interaction (Enzymatic assay) EUB0000609a INSRR
[23] = target: Serine/threonine-protein kinase N2 (Homo sapiens) (UniProt Q16513); test: Selectivity interaction (Ambit kinase binding assay panel) EUB0000609a PKN2; details: at 10 µM
[24] = target: T10, Sodium/nucleoside cotransporter 2 (Homo sapiens, UniProt O43868); test: Selectivity interaction (Enzymatic assay (PanLabs Profiling)) EUB0000715a SLC28A2
T10 sequence (O43868 whole entry): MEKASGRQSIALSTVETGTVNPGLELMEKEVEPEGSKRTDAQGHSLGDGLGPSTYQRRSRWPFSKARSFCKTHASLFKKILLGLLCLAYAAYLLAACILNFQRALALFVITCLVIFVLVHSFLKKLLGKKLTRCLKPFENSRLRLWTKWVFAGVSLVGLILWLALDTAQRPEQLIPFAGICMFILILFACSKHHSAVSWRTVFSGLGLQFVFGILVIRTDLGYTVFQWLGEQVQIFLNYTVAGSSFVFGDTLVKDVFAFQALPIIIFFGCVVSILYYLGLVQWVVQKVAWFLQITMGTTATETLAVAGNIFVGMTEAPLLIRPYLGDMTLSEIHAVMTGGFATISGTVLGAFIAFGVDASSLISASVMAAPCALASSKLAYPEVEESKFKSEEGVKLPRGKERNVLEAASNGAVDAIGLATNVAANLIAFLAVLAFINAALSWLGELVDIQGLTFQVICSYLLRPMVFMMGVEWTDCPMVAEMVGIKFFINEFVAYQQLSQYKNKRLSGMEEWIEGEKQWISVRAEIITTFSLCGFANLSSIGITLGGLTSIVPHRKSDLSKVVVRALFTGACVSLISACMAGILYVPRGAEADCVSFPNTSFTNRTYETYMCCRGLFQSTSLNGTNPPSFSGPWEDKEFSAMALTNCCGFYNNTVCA

[25] = target: Epidermal growth factor receptor (Homo sapiens, UniProt P00533); test: Selectivity interaction (KinomeScan (DiscoverX)) EUB0000715a EGFR; details: at 100 nM
[26] = target: T11, Tyrosine-protein kinase JAK3 (Homo sapiens) (UniProt P52333); test: Selectivity interaction (KinomeScan (DiscoverX)) EUB0000715a JAK3; details: at 100 nM
T11 sequence (whole entry): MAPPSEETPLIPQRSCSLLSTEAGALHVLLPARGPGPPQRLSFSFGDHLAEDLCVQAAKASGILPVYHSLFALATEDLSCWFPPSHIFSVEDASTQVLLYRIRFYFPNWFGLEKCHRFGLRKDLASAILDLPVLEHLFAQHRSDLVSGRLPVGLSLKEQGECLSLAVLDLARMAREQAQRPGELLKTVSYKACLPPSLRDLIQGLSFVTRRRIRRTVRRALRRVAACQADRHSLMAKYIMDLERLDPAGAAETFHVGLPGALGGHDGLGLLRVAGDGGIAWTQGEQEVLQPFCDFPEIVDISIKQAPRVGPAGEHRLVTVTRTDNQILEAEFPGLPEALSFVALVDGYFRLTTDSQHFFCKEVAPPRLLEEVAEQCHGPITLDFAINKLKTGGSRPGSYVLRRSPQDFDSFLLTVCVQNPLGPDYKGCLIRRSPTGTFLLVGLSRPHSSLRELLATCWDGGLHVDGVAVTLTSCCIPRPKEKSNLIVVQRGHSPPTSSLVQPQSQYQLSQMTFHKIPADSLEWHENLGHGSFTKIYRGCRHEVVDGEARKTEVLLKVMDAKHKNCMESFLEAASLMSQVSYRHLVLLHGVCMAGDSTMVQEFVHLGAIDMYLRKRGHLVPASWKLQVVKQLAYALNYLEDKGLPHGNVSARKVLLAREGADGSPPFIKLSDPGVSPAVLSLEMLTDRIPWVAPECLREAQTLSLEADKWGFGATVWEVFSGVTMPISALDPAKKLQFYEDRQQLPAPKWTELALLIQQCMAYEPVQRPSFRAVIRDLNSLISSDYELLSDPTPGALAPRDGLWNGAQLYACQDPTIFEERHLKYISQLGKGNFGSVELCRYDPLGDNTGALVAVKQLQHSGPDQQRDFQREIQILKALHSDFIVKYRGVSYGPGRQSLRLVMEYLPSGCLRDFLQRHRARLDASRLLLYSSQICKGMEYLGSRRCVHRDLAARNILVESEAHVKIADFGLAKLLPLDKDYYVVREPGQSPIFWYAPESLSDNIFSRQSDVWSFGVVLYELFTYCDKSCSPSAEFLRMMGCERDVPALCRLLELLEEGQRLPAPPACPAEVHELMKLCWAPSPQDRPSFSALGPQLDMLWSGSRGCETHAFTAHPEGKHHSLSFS

[27] = target: T12, Mitogen-activated protein kinase kinase kinase 13 (Homo sapiens) (UniProt O43283); test: Selectivity interaction (KinomeScan (DiscoverX)) EUB0000715a MAP3K13; details: at 100 nM
T12 sequence (whole entry): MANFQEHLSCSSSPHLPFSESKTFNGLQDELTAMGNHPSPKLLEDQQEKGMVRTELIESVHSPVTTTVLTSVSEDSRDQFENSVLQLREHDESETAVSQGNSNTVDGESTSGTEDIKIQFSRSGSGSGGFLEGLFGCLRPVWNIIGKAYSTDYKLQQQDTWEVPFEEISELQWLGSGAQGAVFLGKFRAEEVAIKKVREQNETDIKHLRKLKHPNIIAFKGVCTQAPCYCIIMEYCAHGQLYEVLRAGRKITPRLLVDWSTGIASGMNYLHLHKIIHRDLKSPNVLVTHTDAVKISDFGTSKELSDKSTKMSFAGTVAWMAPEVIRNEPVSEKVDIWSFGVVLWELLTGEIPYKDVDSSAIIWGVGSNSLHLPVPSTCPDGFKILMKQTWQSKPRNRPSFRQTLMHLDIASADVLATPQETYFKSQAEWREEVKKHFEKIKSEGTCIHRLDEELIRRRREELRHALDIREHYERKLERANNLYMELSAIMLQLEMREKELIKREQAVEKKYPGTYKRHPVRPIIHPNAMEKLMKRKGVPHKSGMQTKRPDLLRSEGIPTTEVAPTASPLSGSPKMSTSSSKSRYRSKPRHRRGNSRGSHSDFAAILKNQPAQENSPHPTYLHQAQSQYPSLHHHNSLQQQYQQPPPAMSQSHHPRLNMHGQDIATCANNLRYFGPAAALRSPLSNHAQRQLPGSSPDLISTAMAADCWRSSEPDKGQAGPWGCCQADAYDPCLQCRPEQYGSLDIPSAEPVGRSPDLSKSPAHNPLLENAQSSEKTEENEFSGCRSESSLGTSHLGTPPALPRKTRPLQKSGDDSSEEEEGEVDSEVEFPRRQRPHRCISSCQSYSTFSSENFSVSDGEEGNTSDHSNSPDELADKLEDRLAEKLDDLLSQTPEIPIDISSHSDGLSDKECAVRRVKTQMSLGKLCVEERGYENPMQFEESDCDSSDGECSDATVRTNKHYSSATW

T9 sequence (P14616 27-742 limits assumed): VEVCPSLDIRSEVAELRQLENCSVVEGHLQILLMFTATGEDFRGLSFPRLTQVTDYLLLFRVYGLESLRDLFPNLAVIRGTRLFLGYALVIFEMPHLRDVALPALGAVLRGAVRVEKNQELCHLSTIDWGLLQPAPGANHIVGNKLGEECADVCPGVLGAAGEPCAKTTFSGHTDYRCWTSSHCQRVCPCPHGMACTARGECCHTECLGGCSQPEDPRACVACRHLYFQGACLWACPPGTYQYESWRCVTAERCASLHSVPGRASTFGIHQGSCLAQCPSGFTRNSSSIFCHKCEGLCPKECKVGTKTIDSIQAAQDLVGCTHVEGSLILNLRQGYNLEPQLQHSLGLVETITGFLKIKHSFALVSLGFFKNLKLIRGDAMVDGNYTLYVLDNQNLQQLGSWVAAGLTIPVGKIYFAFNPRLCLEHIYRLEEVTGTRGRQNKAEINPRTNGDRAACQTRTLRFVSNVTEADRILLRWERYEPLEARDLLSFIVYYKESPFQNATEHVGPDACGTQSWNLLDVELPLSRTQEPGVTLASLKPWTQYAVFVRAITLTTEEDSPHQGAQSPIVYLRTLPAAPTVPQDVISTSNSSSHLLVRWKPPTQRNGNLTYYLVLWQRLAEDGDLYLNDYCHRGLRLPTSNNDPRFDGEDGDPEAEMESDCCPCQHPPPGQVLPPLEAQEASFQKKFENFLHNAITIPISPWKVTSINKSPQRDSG
T9 sequence (P14616 747-1297 limits assumed): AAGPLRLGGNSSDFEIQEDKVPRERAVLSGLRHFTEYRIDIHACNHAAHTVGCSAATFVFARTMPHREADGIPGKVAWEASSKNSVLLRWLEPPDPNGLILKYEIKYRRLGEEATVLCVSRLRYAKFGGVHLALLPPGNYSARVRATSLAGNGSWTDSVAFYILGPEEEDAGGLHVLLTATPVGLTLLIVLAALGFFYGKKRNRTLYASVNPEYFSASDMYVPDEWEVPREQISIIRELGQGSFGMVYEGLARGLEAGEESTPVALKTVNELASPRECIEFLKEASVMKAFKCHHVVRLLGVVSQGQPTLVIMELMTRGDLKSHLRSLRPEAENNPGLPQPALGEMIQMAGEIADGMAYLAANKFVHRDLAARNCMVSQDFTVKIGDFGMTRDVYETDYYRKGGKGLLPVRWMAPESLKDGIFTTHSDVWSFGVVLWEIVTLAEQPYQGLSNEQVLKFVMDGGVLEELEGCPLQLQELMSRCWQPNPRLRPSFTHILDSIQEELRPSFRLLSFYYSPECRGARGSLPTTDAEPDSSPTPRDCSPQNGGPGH
T5 sequence (P29376 whole entry): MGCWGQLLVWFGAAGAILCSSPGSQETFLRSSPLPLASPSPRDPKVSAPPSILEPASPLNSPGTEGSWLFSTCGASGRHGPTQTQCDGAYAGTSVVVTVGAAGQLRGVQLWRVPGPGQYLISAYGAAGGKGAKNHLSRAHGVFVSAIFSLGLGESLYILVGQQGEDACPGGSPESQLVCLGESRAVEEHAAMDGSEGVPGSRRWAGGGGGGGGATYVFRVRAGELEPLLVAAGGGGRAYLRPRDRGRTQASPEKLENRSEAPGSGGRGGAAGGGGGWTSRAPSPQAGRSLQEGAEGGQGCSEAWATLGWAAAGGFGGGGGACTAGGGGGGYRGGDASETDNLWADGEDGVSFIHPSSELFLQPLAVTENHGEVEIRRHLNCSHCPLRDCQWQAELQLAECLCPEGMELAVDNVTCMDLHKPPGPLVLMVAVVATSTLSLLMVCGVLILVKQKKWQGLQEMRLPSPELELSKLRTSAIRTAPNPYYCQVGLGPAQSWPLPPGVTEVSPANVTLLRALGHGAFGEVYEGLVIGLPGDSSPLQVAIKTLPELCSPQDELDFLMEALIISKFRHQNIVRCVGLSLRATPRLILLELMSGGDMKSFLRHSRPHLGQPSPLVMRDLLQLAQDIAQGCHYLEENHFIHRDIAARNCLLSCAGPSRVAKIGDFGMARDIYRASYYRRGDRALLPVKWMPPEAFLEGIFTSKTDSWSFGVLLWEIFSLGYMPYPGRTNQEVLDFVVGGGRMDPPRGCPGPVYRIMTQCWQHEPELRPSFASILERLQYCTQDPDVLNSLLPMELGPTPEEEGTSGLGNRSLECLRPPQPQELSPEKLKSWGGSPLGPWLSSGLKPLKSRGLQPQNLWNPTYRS
T8 sequence (P06213 28-758 limits assumed): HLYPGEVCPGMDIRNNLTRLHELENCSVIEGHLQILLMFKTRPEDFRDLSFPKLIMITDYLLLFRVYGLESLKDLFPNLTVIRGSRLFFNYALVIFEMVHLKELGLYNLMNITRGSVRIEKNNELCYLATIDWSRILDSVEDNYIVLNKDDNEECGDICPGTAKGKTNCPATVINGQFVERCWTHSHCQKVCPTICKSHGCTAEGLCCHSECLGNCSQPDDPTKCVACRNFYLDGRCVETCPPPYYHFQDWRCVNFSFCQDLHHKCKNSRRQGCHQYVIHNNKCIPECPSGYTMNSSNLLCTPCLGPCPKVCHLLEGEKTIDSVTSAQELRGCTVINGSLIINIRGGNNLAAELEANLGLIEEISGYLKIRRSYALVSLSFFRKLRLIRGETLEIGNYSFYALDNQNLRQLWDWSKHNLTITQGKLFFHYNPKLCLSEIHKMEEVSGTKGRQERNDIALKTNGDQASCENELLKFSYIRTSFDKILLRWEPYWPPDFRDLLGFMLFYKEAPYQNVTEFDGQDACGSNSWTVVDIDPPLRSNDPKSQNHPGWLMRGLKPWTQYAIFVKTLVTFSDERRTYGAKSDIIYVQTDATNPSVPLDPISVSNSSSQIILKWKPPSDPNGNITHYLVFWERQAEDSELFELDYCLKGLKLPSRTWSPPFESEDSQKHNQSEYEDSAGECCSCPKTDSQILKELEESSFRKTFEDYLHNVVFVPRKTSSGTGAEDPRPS
T8 sequence (P06213 763-1382 limits assumed): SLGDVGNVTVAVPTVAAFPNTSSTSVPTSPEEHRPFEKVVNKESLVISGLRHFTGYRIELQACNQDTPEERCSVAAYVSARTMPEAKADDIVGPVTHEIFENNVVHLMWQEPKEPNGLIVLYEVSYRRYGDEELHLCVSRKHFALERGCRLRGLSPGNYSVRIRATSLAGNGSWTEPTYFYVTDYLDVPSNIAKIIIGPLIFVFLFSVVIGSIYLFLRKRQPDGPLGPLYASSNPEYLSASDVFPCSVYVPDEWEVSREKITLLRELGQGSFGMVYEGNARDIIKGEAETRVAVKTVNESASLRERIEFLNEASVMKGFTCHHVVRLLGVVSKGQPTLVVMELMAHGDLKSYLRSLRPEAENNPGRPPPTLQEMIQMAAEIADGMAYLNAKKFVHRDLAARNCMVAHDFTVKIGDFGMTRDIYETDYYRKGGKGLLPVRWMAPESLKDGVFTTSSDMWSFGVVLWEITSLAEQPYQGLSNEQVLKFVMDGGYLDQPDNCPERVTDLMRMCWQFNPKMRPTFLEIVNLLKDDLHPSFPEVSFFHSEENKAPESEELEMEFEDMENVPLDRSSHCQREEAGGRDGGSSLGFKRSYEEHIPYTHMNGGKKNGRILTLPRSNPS
T2 sequence (P28482 whole entry): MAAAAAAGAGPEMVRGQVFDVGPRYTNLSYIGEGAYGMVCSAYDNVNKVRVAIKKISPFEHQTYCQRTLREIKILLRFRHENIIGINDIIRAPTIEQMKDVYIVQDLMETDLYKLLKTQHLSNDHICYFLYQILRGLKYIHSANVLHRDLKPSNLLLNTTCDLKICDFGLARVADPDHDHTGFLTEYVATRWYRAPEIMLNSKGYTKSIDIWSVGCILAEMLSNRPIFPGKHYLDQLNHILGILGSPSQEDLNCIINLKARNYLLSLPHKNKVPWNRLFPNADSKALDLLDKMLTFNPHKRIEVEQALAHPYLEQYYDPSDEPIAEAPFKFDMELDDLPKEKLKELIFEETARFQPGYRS
Serine/threonine-protein kinase N2 (Homo sapiens), sequence (Q16513 whole entry, looked up): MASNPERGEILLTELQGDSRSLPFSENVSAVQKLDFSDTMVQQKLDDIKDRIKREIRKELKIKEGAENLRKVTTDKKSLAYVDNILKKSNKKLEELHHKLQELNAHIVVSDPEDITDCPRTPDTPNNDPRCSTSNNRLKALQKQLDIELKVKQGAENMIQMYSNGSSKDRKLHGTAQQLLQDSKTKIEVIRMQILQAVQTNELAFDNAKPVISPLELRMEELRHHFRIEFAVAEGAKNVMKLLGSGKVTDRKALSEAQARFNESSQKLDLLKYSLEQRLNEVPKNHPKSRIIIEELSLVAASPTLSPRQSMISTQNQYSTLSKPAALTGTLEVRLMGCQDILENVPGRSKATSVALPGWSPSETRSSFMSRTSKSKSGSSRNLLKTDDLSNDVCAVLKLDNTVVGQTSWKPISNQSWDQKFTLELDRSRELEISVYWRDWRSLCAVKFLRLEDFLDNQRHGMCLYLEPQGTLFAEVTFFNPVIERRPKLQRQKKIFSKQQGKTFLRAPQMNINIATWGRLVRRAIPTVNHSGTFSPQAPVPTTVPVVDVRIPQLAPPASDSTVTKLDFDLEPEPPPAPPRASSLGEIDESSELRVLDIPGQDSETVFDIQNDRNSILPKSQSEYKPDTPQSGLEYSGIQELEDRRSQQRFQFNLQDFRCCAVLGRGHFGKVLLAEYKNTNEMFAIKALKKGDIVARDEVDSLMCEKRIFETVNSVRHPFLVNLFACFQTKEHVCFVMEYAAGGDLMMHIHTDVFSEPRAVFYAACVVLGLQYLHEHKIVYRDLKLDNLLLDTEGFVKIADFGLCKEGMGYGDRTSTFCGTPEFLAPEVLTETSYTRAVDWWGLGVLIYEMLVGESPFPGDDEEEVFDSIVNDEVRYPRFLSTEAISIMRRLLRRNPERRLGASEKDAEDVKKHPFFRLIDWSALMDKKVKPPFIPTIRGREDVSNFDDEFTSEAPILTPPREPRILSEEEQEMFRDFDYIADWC

% of control [1]: 0.5%
% of control [2]: 7.3%
IC50 [3]: 1900 nM
% of control [4]: 6%
IC50 [5]: 2900 nM
% of control [6]: 5.2%
% of control [7]: 5.4%
IC50 [8]: 1100 nM
% of control [9]: 6.2%
IC50 (Activated CDC42 kinase 1): 3100 nM
IC50 [10]: 2600 nM
% of control [11]: 8.9%
IC50 [12]: 21 nM
% of control [13]: 1.2%
IC50 [14]: 29 nM
IC50 (Focal adhesion kinase 1): 440 nM
% of control [15]: 0.5%
IC50 [16]: 280 nM
% of control [17]: 0.9%
IC50 [18]: 750 nM
% of control (Insulin receptor [19]): 0.15%
IC50 (Insulin receptor [20]): 470 nM
% of control [21]: 2%
IC50 [22]: 1200 nM
% of control [23]: 0.1%
SMILES: COc1cc(N2CCC(O)CC2)ccc1Nc1cc(Nc2ccccc2S(=O)(=O)C(C)C)c2cc[nH]c2n1

IC50 [24]: 9700 nM
% of control [25]: 43%
% of control [26]: 0%
% of control [27]: 0%
SMILES: C[C@@H]1CN(c2cc(-c3n[nH]c4ccc(OC5(C)CC5)cc34)ncn2)C[C@H](C)O1 [MLi-2]
